Experimental data: US20120115900A1, “SUBSTITUTED NAPHTHYRIDINE DERIVATIVES AND THEIR MEDICAL USE” (NEUROSEARCH A/S, priority 2009, published 2012)

Columns and labels:
[1] = target: T1, human Kv7.2+3 (Homo sapiens, UniProt O43525+O43526); assay: FLIPR-based characterization of Kv7.2+3 modulators (thallium (I) sensitive BTC fluorescence assay); format: cell-based; conditions: HEK293 cells over-expressing human Kv7.2+3, mean of at least two test runs; for EC50: Tl+ influx, FLIPR, 50% of channel activity compared to retigabine control responses; for Emax: maximal response relative to the reference (retigabine) response, read-out: Efficacy
T1 construct: expressed in transfected cells; host or cells: HEK293
Method: FLIPR-Based Characterization of Kv7.2+3 Modulators
This experiment determines the ability of a test compound to modulate the activity of Kv7.2+3 channels heterologously expressed in human HEK293 cells. The ability is determined relative to retigabine. The activity is determined using a standard thallium (I) sensitive assay, e.g. using a fluorometric method in a Fluorescent Image Plate Reader (FLIPR) as described below in more detail.
Full concentration/response curves are generated and EC50 values are calculated based on max values. EC50 values (Effective Concentration) represent the concentration of the test substance, at which 50% of the channel activity is obtained when compared to retigabine control responses. Maximal response determined relative to the reference (retigabine) response is calculated.
Human HEK293 cells over-expressing human Kv7.2+3 are grown in culture medium (DMEM supplemented with 10% foetal bovine serum), in polystyrene culture flasks ([…]) in a humidified atmosphere of 5% CO2 in air, at 37° C. Cell confluence should be 80-90% on day of plating. Cells are rinsed with 4 ml of PBS (phosphate buffered saline) and incubated 2 min with 1 ml of Trypsin-EDTA. After addition of 25 ml of culture medium cells are re-suspended by trituration with a 25 ml pipette.
The cells are seeded at a density of ˜3×10^6 cells/ml (25 μl/well) in blackwalled, clear bottom, 384-well plates pre-treated with 0.01 g/l poly-D-lysin (20 μl/well for ≧30 min). Plated cells were allowed to proliferate for 24 h before loading with dye.
BTC-AM (50 mg, Invitrogen) is added 25.5 μl DMSO. The BTC-AM stock solution (2 mM) is diluted to a final concentration of 2 μM in Cl^− free assay buffer (in mM: 140 Na^+-gluconate, 2.5 K^+-gluconate, 6 Ca2^+-gluconate, 1 Mg^2+gluconate, 5 glucose, 10 HEPES, pH 7.3) containing 2 μM ouabain, 2 mM amaranth and 1 mM tartrazine.
The culture medium is aspirated from the wells, the cells are washed thrice in Cl^− free assay buffer, and 25 μl of the BTC-AM loading solution is added to each well. The cells are incubated at 37° C. for 60 min.
After the loading period, the TI^+-sensitive BTC fluorescence signal is measured over time using a FLIPR.
• Temperature: Room temp. • First addition: 12 μl test or control compound after 15 sec at a rate of 30 μl/sec and starting height of 20 μl • Second addition: 12 μl stimulus buffer (Cl^− free assay buffer supplemented with 1 mM Tl2SO4, 5 mM K2SO4 as well as the quenchers amaranth (2 mM) and tartrazine (1 mM)) is added after an additional 3 minutes at a rate of 30 μl/sec and starting height of 30 μl • Reading intervals: First sequence—3 sec×5, 2 sec×24 and 5 sec×25 Second sequence—1 sec×5, 2 sec×24 and 5 sec×36 Addition plates (compound plate and stimulus plate) are placed in positions 2 and 3, respectively. Cell plates are placed in position 1 and run using the “KCNQ (two additions)” program. FLIPR will then take the appropriate measurements in accordance with the interval settings above. Fluorescence obtained after stimulation is corrected for the mean basal fluorescence (in Cl^− free assay buffer).
Full concentration/response curves are generated and EC50 values (“Effective Concentration”; the concentration at which 50% of the channel activity is obtained when compared to retigabine control responses) are calculated based on peak values. Maximal response determined relative to the reference (retigabine) response is calculated. Data are given as mean of at least two test runs

SMILES | EC50 [1] [nM] | Emax [1] [%] | melting point [°C]
Cc1cc(N2CCc3ncccc3C2)nc(N2CCC(F)(F)CC2)c1NC(=O)c1ncoc1C [Compound 1.9, N-[2-(4,4-difluoro-1-piperidyl)-6-(7,8-dihydro-5H-1,6-naphthyridin-6-yl)-4-methyl-3-pyridyl]-5-methyl-oxazole-4-carboxamide] | 50 | 105 | –
Cc1cc(N2CCc3ncccc3C2)nc(N2CCC(F)(F)CC2)c1NC(=O)c1ncoc1-c1ccccc1 [Compound 1.17, N-[2-(4,4-difluoro-1-piperidyl)-6-(7,8-dihydro-5H-1,6-naphthyridin-6-yl)-4-methyl-3-pyridyl]-5-phenyl-oxazole-4-carboxamide] | 4600 | 90 | –
Cc1ccoc1C(=O)Nc1c(C)cc(N2CCc3ncccc3C2)nc1N1CC[C@@H](F)C1 [Compound 1.4, N-[6-(7,8-dihydro-5H-1,6-naphthyridin-6-yl)-2-[(3R)-3-fluoropyrrolidin-1-yl]-4-methyl-3-pyridyl]-3-methyl-furan-2-carboxamide] | 85 | 101 | –
Cc1cc(N2CCc3ncccc3C2)nc(N2CCCC2)c1NC(=O)Cc1cc(F)cc(F)c1 [Compound 1.1, 2-(3,5-Difluoro-phenyl)-N-[6-(7,8-dihydro-5H-[1,6]naphthyridin-6-yl)-4-methyl-2-pyrrolidin-1-yl-pyridin-3-yl]-acetamide] | 67 | 96 | 203 to 206
Cc1cc(N2CCc3ncccc3C2)nc(N2CCC(F)(F)CC2)c1NC(=O)c1scnc1C [Compound 1.10, N-[2-(4,4-difluoro-1-piperidyl)-6-(7,8-dihydro-5H-1,6-naphthyridin-6-yl)-4-methyl-3-pyridyl]-4-methyl-thiazole-5-carboxamide] | 6900 | 115 | –
Cc1nc(C(=O)Nc2c(C)cc(N3CCc4ncccc4C3)nc2N2CCC(F)(F)CC2)c(C)o1 [Compound 1.16, N-[2-(4,4-difluoro-1-piperidyl)-6-(7,8-dihydro-5H-1,6-naphthyridin-6-yl)-4-methyl-3-pyridyl]-2,5-dimethyl-oxazole-4-carboxamide] | 5400 | 116 | –
Cc1cc(N2CCc3ncccc3C2)nc(N2CC[C@@H](F)C2)c1NC(=O)Cc1cc(F)cc(F)c1 [Compound 1.5, 2-(3,5-difluorophenyl)-N-[6-(7,8-dihydro-5H-1,6-naphthyridin-6-yl)-2-[(3R)-3-fluoropyrrolidin-1-yl]-4-methyl-3-pyridyl]-acetamide] | 190 | 101 | –
Cc1cc(N2CCc3ncccc3C2)nc(N2CCC(F)(F)CC2)c1NC(=O)c1cnsc1C [Compound 1.19, N-[2-(4,4-difluoro-1-piperidyl)-6-(7,8-dihydro-5H-1,6-naphthyridin-6-yl)-4-methyl-3-pyridyl]-5-methyl-isothiazole-4-carboxamide] | 5200 | 71 | –
Cc1cc(N2CCc3ncccc3C2)nc(N2CCCC2)c1NC(=O)c1cccc(F)c1 [Compound 1.3, N-[6-(7,8-Dihydro-5H-[1,6]naphthyridin-6-yl)-4-methyl-2-pyrrolidin-1-yl-pyridin-3-yl]-3-fluoro-benzamide] | 5000 | 24 | –
Cc1cc(N2CCc3ncccc3C2)nc(N2CCC(F)(F)CC2)c1NC(=O)Cc1cc(F)cc(F)c1 [Compound 1.7, 2-(3,5-difluorophenyl)-N-[2-(4,4-difluoro-1-piperidyl)-6-(7,8-dihydro-5H-1,6-naphthyridin-6-yl)-4-methyl-3-pyridyl]-acetamide] | 220 | 104 | –
Cc1cccnc1C(=O)Nc1c(C)cc(N2CCc3ncccc3C2)nc1N1CCC(F)(F)CC1 [Compound 1.15, N-[2-(4,4-difluoro-1-piperidyl)-6-(7,8-dihydro-5H-1,6-naphthyridin-6-yl)-4-methyl-3-pyridyl]-3-methyl-pyridine-2-carboxamide] | 2900 | 28 | –
Cc1cc(N2CCc3ncccc3C2)nc(N2CCCC2)c1NC(=O)CC(C)(C)C [Compound 1.2, N-[6-(7,8-Dihydro-5H-[1,6]naphthyridin-6-yl)-4-methyl-2-pyrrolidin-1-yl-pyridin-3-yl]-3,3-dimethyl-butyramide] | 1200 | 121 | –
Cc1cc(N2CCc3ncccc3C2)nc(N2CCC(F)(F)CC2)c1NC(=O)c1ocnc1C [Compound 1.12, N-[2-(4,4-difluoro-1-piperidyl)-6-(7,8-dihydro-5H-1,6-naphthyridin-6-yl)-4-methyl-3-pyridyl]-4-methyl-oxazole-5-carboxamide] | 65 | 100 | –
Cc1cc(N2CCc3ncccc3C2)nc(N2CCC(F)(F)CC2)c1NC(=O)c1conc1C [Compound 1.11, N-[2-(4,4-difluoro-1-piperidyl)-6-(7,8-dihydro-5H-1,6-naphthyridin-6-yl)-4-methyl-3-pyridyl]-3-methyl-isoxazole-4-carboxamide] | 1200 | 115 | –
Cc1ccoc1C(=O)Nc1c(C)cc(N2CCc3ncccc3C2)nc1N1CCC(F)(F)CC1 [Compound 1.6, N-[2-(4,4-difluoro-1-piperidyl)-6-(7,8-dihydro-5H-1,6-naphthyridin-6-yl)-4-methyl-3-pyridyl]-3-methyl-furan-2-carboxamide] | 19 | 81 | –
Cc1cc(N2CCc3ncccc3C2)nc(N2CCC(F)(F)CC2)c1NC(=O)c1nccn1C [Compound 1.8, N-[2-(4,4-difluoro-1-piperidyl)-6-(7,8-dihydro-5H-1,6-naphthyridin-6-yl)-4-methyl-3-pyridyl]-1-methyl-imidazole-2-carboxamide] | 1300 | 114 | –
Cc1cc(N2CCc3ncccc3C2)nc(N2CCC(F)(F)CC2)c1NC(=O)CC1CC1 [Compound 1.13, 2-cyclopropyl-N-[2-(4,4-difluoro-1-piperidyl)-6-(7,8-dihydro-5H-1,6-naphthyridin-6-yl)-4-methyl-3-pyridyl]-acetamide] | 1100 | 109 | –
Cc1cc(N2CCc3ncccc3C2)nc(N2CCC(F)(F)CC2)c1NC(=O)c1ncoc1C1CC1 [Compound 1.18, 5-cyclopropyl-N-[2-(4,4-difluoro-1-piperidyl)-6-(7,8-dihydro-5H-1,6-naphthyridin-6-yl)-4-methyl-3-pyridyl]oxazole-4-carboxamide] | 73 | 34 | –
CCc1ocnc1C(=O)Nc1c(C)cc(N2CCc3ncccc3C2)nc1N1CCC(F)(F)CC1 [Compound 1.14, N-[2-(4,4-difluoro-1-piperidyl)-6-(7,8-dihydro-5H-1,6-naphthyridin-6-yl)-4-methyl-3-pyridyl]-5-ethyl-oxazole-4-carboxamide] | 20 | 89 | –
CCOC(=O)Nc1c(C)cc(N2CCc3ncccc3C2)nc1N1CCC(F)(F)CC1 [Compound 1.20, ethyl N-[2-(4,4-difluoro-1-piperidyl)-6-(7,8-dihydro-5H-1,6-naphthyridin-6-yl)-4-methyl-3-pyridyl]-carbamate] | 280 | 100 | –
